Laboratory results: patent US20180256592A1, “ANTIBACTERIAL COMPOSITIONS” (priority 2015, published 2018)

Columns and labels:
Assay type in all cases: cell-based
[1] = system: KP S 440 (OXA 181, SHV, TEM, CTX-M 1); assay: MIC by agar dilution (MHA, CLSI)
Description: (§1) The antibacterial activity of combinations according to the invention was investigated against various bacterial strains. In a typical study, minimum inhibitory concentrations (MICs) were determined using Muller Hinton Agar (MHA) (BD, USA) according to Clinical and Laboratory Standards Institute (CLSI) recommendations, (Clinical and Laboratory Standards Institute (CLSI), Performance Standards for Antimicrobial Susceptibility Testing, 20th Informational Supplement, M 100-S20, Volume 30, No. 1, 2010). In short, the inocula were adjusted to deliver about […] colony forming units (CFU) per spot with a multipoint inoculator (Applied Quality Services, UK). The plates were pored with doubling concentration range of the test combinations according to invention containing MHA. The plates were inoculated and were incubated at 35° C. for 18 hours.

[2] = system: KP S 691 (OXA 181, SHV, TEM, CTX-M 1); assay: MIC by agar dilution (MHA, CLSI)
Description: as §1

[3] = system: Klebsiella H 515 (KPC, class A); assay: MIC by agar dilution (MHA, CLSI)
Description: as §1

[4] = system: Klebsiella H 520 (KPC, class A); assay: MIC by agar dilution (MHA, CLSI)
Description: as §1

[5] = system: Klebsiella H 521 (KPC, class A); assay: MIC by agar dilution (MHA, CLSI)
Description: as §1

[6] = system: Klebsiella H 523 (KPC, class A); assay: MIC by agar dilution (MHA, CLSI)
Description: as §1

[7] = system: Klebsiella J 101 (TEM, SHV, OMP); assay: MIC by agar dilution (MHA, CLSI)
Description: as §1

[8] = system: Klebsiella J 102 (TEM, SHV, OMP); assay: MIC by agar dilution (MHA, CLSI)
Description: as §1

[9] = system: Klebsiella J 117 (SHV, OMP); assay: MIC by agar dilution (MHA, CLSI)
Description: as §1

[10] = system: Klebsiella J 130 (SHV, OMP); assay: MIC by agar dilution (MHA, CLSI)
Description: as §1

[11] = system: NCTC KP 13442 (OXA-48); assay: MIC by agar dilution (MHA, CLSI)
Description: as §1

[12] = system: highly resistant gram negative bacterial strains; assay: MIC by agar dilution (MHA, CLSI), whole strain panel of Table 1; details: read-out: MICs when used alone
Description: as §1

[13] = KP S 691 (OXA 181, SHV, TEM, CTX-M 1), + clavulanic acid 4 μg/ml

## C=CC1=C(C(=O)O)N2C(=O)[C@@H](NC(=O)/C(=N\OCC(=O)O)c3csc(N)n3)[C@H]2SC1 [Cefixime, cefixime]
[1]; + clavulanic acid 4 μg/ml
  MIC in presence of Clavulanic acid (4 μg/ml): 16 µg/mL
[1]; drug alone
  MIC: > 32 µg/mL
[2]
  MIC: > 32 µg/mL
[2]; [13]
  MIC in presence of Clavulanic acid (4 μg/ml): 16 µg/mL
[3]; + clavulanic acid 4 μg/ml
  MIC in presence of Clavulanic acid (4 μg/ml): 16 µg/mL
[3]; drug alone
  MIC: > 32 µg/mL
[4]; + clavulanic acid 4 μg/ml
  MIC in presence of Clavulanic acid (4 μg/ml): 16 µg/mL
[4]; drug alone
  MIC: > 32 µg/mL
[5]; + clavulanic acid 4 μg/ml
  MIC in presence of Clavulanic acid (4 μg/ml): 16 µg/mL
[5]; drug alone
  MIC: > 32 µg/mL
[6]; + clavulanic acid 4 μg/ml
  MIC in presence of Clavulanic acid (4 μg/ml): 16 µg/mL
[6]; drug alone
  MIC: > 32 µg/mL
[7]; + clavulanic acid 4 μg/ml
  MIC in presence of Clavulanic acid (4 μg/ml): >32 µg/mL
[7]; drug alone
  MIC: > 32 µg/mL
[8]; + clavulanic acid 4 μg/ml
  MIC in presence of Clavulanic acid (4 μg/ml): >32 µg/mL
[8]; drug alone
  MIC: > 32 µg/mL
[9]; + clavulanic acid 4 μg/ml
  MIC in presence of Clavulanic acid (4 μg/ml): 0.5 µg/mL
[9]; drug alone
  MIC: > 32 µg/mL
[10]; + clavulanic acid 4 μg/ml
  MIC in presence of Clavulanic acid (4 μg/ml): 16 µg/mL
[10]; drug alone
  MIC: > 32 µg/mL
[11]; + clavulanic acid 4 μg/ml
  MIC in presence of Clavulanic acid (4 μg/ml): 0.25 µg/mL
[11]; drug alone
  MIC: 0.25 µg/mL

## C[C@]1(Cn2ccnn2)[C@H](C(=O)O)N2C(=O)C[C@H]2S1(=O)=O [Tazobactam, tazobactam]
[12]
  MIC: > 32 µg/mL

## O=C(O)[C@H]1/C(=C/CO)O[C@@H]2CC(=O)N21 [Clavulanic acid, clavulanic acid]
[12]
  MIC: > 32 µg/mL

## COCC1=C(C(=O)O)N2C(=O)[C@@H](NC(=O)/C(=N\OC)c3csc(N)n3)[C@H]2SC1 [Cefpodoxime, cefpodoxime]
[1]; + clavulanic acid 4 μg/ml
  MIC of Cefpodoxime in presence of Clavulanic acid (4 μg/ml): >32 μ/ml
[1]; drug alone
  MIC of Cefpodoxime, Control (Cefpodoxime alone): >32 μ/ml
[2]; [13]
  MIC of Cefpodoxime in presence of Clavulanic acid (4 μg/ml): >32 μ/ml
[2]; KP S 691 (OXA 181, SHV, TEM, CTX-M 1), drug alone
  MIC of Cefpodoxime, Control (Cefpodoxime alone): >32 μ/ml
[3]; + clavulanic acid 4 μg/ml
  MIC of Cefpodoxime in presence of Clavulanic acid (4 μg/ml): >32 μ/ml
[3]; drug alone
  MIC of Cefpodoxime, Control (Cefpodoxime alone): >32 μ/ml
[4]; + clavulanic acid 4 μg/ml
  MIC of Cefpodoxime in presence of Clavulanic acid (4 μg/ml): >32 μ/ml
[4]; drug alone
  MIC of Cefpodoxime, Control (Cefpodoxime alone): >32 μ/ml
[5]; + clavulanic acid 4 μg/ml
  MIC of Cefpodoxime in presence of Clavulanic acid (4 μg/ml): >32 μ/ml
[5]; drug alone
  MIC of Cefpodoxime, Control (Cefpodoxime alone): >32 μ/ml
[6]; + clavulanic acid 4 μg/ml
  MIC of Cefpodoxime in presence of Clavulanic acid (4 μg/ml): >32 μ/ml
[6]; drug alone
  MIC of Cefpodoxime, Control (Cefpodoxime alone): >32 μ/ml
[7]; + clavulanic acid 4 μg/ml
  MIC of Cefpodoxime in presence of Clavulanic acid (4 μg/ml): >32 μ/ml
[7]; drug alone
  MIC of Cefpodoxime, Control (Cefpodoxime alone): >32 μ/ml
[8]; + clavulanic acid 4 μg/ml
  MIC of Cefpodoxime in presence of Clavulanic acid (4 μg/ml): >32 μ/ml
[8]; drug alone
  MIC of Cefpodoxime, Control (Cefpodoxime alone): >32 μ/ml
[9]; + clavulanic acid 4 μg/ml
  MIC of Cefpodoxime in presence of Clavulanic acid (4 μg/ml): 4 μ/ml
[9]; drug alone
  MIC of Cefpodoxime, Control (Cefpodoxime alone): >32 μ/ml
[10]; + clavulanic acid 4 μg/ml
  MIC of Cefpodoxime in presence of Clavulanic acid (4 μg/ml): 32 μ/ml
[10]; drug alone
  MIC of Cefpodoxime, Control (Cefpodoxime alone): >32 μ/ml
[11]; + clavulanic acid 4 μg/ml
  MIC of Cefpodoxime in presence of Clavulanic acid (4 μg/ml): 1 μ/ml
[11]; drug alone
  MIC of Cefpodoxime, Control (Cefpodoxime alone): 4 μ/ml
